Experimental data reported in patent publication US20110152302A1, “Novel dicyclanil-based shelf stable aqueous suspension and non-aqueous solution pour-on and spray-on formulations useful for the prevention and treatment of insect infestation in animals” (priority 2009, published 2011).

How the values were obtained:
[1] = Maximum solubility of dicyclanil in non-aqueous solvents; assay type: physicochemical
Method: (§1) Materials and Methods: To determine the range of potential non-aqueous solvents to be used in producing dicyclanil solution formulations, a range of solubility studies were performed. The method employed was to add 500 mg quantities of dicyclanil into 10 mL each of solvent. If the drug dissolved it was placed into the refrigerator overnight. Samples were then taken out of the refrigerator and checked for the emergence of precipitate after the sample had been returned to room temperature. Thereafter, dicyclanil was added to each solution, 100 mg each time, until no more dicyclanil would dissolve in the solvent (i.e. dicyclanil was added until the solution reached its saturation concentration for dicyclanil).
Results: An initial range of solvents was obtained (TABLE 12).

[2] = more active than cyromazine; cited from earlier work
[3] = Solubility of dicyclanil in solvents at 70° C.; assay type: physicochemical
[4] = Solubility of dicyclanil in solvents at 25° C.; assay type: physicochemical
Method: as §1
As a result, a further range of solvents was tested. The solvents used for these solubility studies are defined in TABLE 13.

[5] = Dicyclanil crystal formation in water with 5% surfactant; assay type: physicochemical
Method: A commercially manufactured batch of Dicyclanil Polymorph A was sourced. This crystalline form was confirmed by X-Ray Diffraction (FIG. 1). Studies were then conducted to determine the ability of various surfactants to prevent the growth of dicyclanil crystals suspended in water. Nonyl phenol and octyl phenol ethoxylates were tested in an aqueous medium according to TABLE 2.
Given the inability of the surfactants of TABLE 2 to prevent crystal growth, a further range of surfactants was tested.

[6] = Stability of dicyclanil 5% PEG200 solutions, refrigerated and accelerated temperature, 5 days; assay type: physicochemical
Method: Materials and Methods: A formulation was prepared in the following manner (concentration summarized in TABLE 16): • a) Loaded 90% PEG 200 • b) Added Dicyclanil with mixing • c) Made to volume with PEG 200 • d) Mixed until dissolved
Several test formulations were made to determine their stability under refrigerated (2-8° C.) and accelerated temperature (70° C.) conditions for 5 days. DIC 021, 022 and 025 were prepared according to the method described above.

[7] = water with 5% surfactant, Most = >90%

For `N#Cc1c(N)nc(NC2CC2)nc1N` [Dicyclanil, 4,6-diamino-2-(cyclopropylamino)-5-pyrimidinecarbonitrile], the solubility in words ([1]; many of the commonly used veterinary topical solvents (TABLE 12)) was “quite insoluble”, the “Maximum solubility (% w/v)” value ([1]; solvent 2-Pyrollidone) was 1% w/v and the “Maximum solubility (% w/v)” value ([1]; solvent Benzyl Alcohol) was <1% w/v. For the same compound, the “Maximum solubility (% w/v)” value ([1]; solvent DGBE) was 2% w/v, the “Maximum solubility (% w/v)” value ([1]; solvent Glycofurol) was 6% w/v and the “Maximum solubility (% w/v)” value ([1]; solvent IPM) was <1% w/v. For the same compound, the “Maximum solubility (% w/v)” value ([1]; solvent MIGLYOL 810) was <1% w/v, the “Maximum solubility (% w/v)” value ([1]; solvent MIGLYOL 840) was <1% w/v and the “Maximum solubility (% w/v)” value ([1]; solvent NMP) was 4% w/v. For the same compound, the “Maximum solubility (% w/v)” value ([1]; solvent Propylene Glycol) was 1% w/v, the “activity relative to cyromazine” value [2] was 10 times and the “solubility of dicyclanil, soluble at 5%” value ([3]; BA, 5%) was “less”. The “solubility of dicyclanil, soluble at 5%” value ([3]; DGBE, 5%) was “less”, the “solubility of dicyclanil, soluble at 5%” value ([3]; DGMEE, 5%) was “✓” and the “solubility of dicyclanil, soluble at 5%” value ([3]; DMA, 5%) was “✓”. The “solubility of dicyclanil, soluble at 10%” value ([3]; DMA) was “✓”, the “solubility of dicyclanil, soluble at 15%” value ([3]; DMA) was “✓” and the “solubility of dicyclanil, soluble at 20%” value ([3]; DMA) was “✓”. For the same compound, the “solubility of dicyclanil, soluble at 25%” value ([3]; DMA) was “✓”, the “solubility of dicyclanil, soluble at 5%” value ([3]; DMSO, 5%) was “✓” and the “solubility of dicyclanil, soluble at 10%” value ([3]; DMSO) was “✓”. The “solubility of dicyclanil, soluble at 15%” value ([3]; DMSO) was “✓”, the “solubility of dicyclanil, soluble at 20%” value ([3]; DMSO) was “✓” and the “solubility of dicyclanil, soluble at 25%” value ([3]; DMSO) was “✓”. The “solubility of dicyclanil, soluble at 5%” value ([3]; EL, 5%) was “✓”, the “solubility of dicyclanil, soluble at 5%” value ([3]; GF, 5%) was “✓” and the “solubility of dicyclanil, soluble at 10%” value ([3]; GF) was “✓”. For the same compound, the “solubility of dicyclanil, soluble at 5%” value ([3]; IPA, 5%) was “less”, the “solubility of dicyclanil, soluble at 5%” value ([3]; PEG400, 5%) was “✓” and the “solubility of dicyclanil, soluble at 5%” value ([3]; PG, 5%) was “less”. The “solubility of dicyclanil, soluble at 5%” value ([4]; 25° C., BA) was “less”, the “solubility of dicyclanil, soluble at 5%” value ([4]; 25° C., DGBE) was “less” and the “solubility of dicyclanil, soluble at 5%” value ([4]; 25° C., DGMEE) was “less”. The “solubility of dicyclanil, soluble at 5%” value ([4]; 25° C., DMA) was “✓”, the “solubility of dicyclanil, soluble at 6%” value ([4]; 25° C., DMA) was “✓” and the “solubility of dicyclanil, soluble at 7%” value ([4]; 25° C., DMA) was “✓”. For the same compound, the “solubility of dicyclanil, soluble at 8%” value ([4]; 25° C., DMA) was “✓”, the “solubility of dicyclanil, soluble at 9%” value ([4]; 25° C., DMA) was “✓” and the “solubility of dicyclanil, soluble at 10%” value ([4]; 25° C., DMA, 10%) was “✓”. The “solubility of dicyclanil, soluble at 11%” value ([4]; 25° C., DMA, 11%) was “✓”, the “solubility of dicyclanil, soluble at 12%” value ([4]; 25° C., DMA, 12%) was “✓” and the “solubility of dicyclanil, soluble at 13%” value ([4]; 25° C., DMA, 13%) was “✓”. The “solubility of dicyclanil, soluble at 14%” value ([4]; 25° C., DMA, 14%) was “✓”, the “solubility of dicyclanil, soluble at 15%” value ([4]; 25° C., DMA, 15%) was “✓” and the “solubility of dicyclanil, soluble at 16%” value ([4]; 25° C., DMA, 16%) was “✓”. For the same compound, the “solubility of dicyclanil, soluble at 17%” value ([4]; 25° C., DMA, 17%) was “✓”, the “solubility of dicyclanil, soluble at 18%” value ([4]; 25° C., DMA, 18%) was “✓” and the “solubility of dicyclanil, soluble at 5%” value ([4]; 25° C., DMSO) was “✓”. The “solubility of dicyclanil, soluble at 6%” value ([4]; 25° C., DMSO) was “✓”, the “solubility of dicyclanil, soluble at 7%” value ([4]; 25° C., DMSO) was “✓” and the “solubility of dicyclanil, soluble at 8%” value ([4]; 25° C., DMSO) was “✓”. For the same compound, the “solubility of dicyclanil, soluble at 9%” value ([4]; 25° C., DMSO) was “✓”, the “solubility of dicyclanil, soluble at 5%” value ([4]; 25° C., EL) was “less” and the “solubility of dicyclanil, soluble at 5%” value ([4]; 25° C., GF) was “less”. For the same compound, the “solubility of dicyclanil, soluble at 5%” value ([4]; 25° C., IPA) was “less”, the “solubility of dicyclanil, soluble at 5%” value ([4]; 25° C., PEG200) was “✓” and the “solubility of dicyclanil, soluble at 6%” value ([4]; 25° C., PEG200) was “✓”. For the same compound, the “solubility of dicyclanil, soluble at 7%” value ([4]; 25° C., PEG200) was “✓”, the “solubility of dicyclanil, soluble at 5%” value ([4]; 25° C., PEG400) was “less” and the “solubility of dicyclanil, soluble at 5%” value ([4]; 25° C., PG) was “less”. For the same compound, the solubility in words ([4]; Isopropyl Alcohol, Benzyl Alcohol, Ethyl Lactate, Propylene Glycol, Diethylene Glycol monobutyl Ether) was “quite insoluble”, the “solubility of dicyclanil in PEG200” value ([4]; at 25° C., PEG200) was 7% and the “solubility of dicyclanil in PEG400” value ([4]; at 25° C., PEG400) was “less than 5%”. The “Dicyclanil Crystal Formation, 3 days” value ([5]; water, No surfactant added) was “Large crystals up to 200μ”, the “Dicyclanil Crystal Formation, Initial” value ([5]; water, No surfactant added) was “Long thin, up to 200μ” and the “solubility in PEG (in words)” value ([6]; PEG) was “good solubility”. The “concentration at which dicyclanil remains stable without additional excipients” value ([6]; PEG-based formulations) was “at least 5%”.

With `CCCCC(CC)COC(=O)CC(C(=O)OCC(CC)CCCC)S(=O)(=O)[O-].[Na+]` (centres unmarked) [Docusate sodium] the “Dicyclanil Crystal Formation, 3 days” value [5, 7] was “Large crystals up to 200μ” and the “Dicyclanil Crystal Formation, Initial” value [5, 7] was “Up to 100μ”.

For `CCCCCCCCCCCCOS(=O)(=O)[O-].[Na+]` [Sodium lauryl sulphate], the “Dicyclanil Crystal Formation, 3 days” value [5, 7] was “Large crystals up to 200μ” and the “Dicyclanil Crystal Formation, Initial” value [5, 7] was “Mostly up to 200μ”.
